Source: ChEMBL document CHEMBL1201862, “PubChem BioAssay data set” (2004)
Calls of active or inactive are those of the source.

Assays:
[1] = biological target: T1, Heat shock factor protein 1 (Mus musculus, UniProt P38532); experiment: HSF1 potentiators in luciferase reporter cells, confirmation, cell-based, NIH3T3, luminescence, dose retest (AID 435004); format: functional;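 note: stress induced by proteasome inhibitor MG132 added 30 min after compound; luciferase reporter driven by HSF1 response element in NIH3T3 cells; actives raise luminescence as potentiators of the MG132 stress response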
T1 sequence (P38532 whole entry): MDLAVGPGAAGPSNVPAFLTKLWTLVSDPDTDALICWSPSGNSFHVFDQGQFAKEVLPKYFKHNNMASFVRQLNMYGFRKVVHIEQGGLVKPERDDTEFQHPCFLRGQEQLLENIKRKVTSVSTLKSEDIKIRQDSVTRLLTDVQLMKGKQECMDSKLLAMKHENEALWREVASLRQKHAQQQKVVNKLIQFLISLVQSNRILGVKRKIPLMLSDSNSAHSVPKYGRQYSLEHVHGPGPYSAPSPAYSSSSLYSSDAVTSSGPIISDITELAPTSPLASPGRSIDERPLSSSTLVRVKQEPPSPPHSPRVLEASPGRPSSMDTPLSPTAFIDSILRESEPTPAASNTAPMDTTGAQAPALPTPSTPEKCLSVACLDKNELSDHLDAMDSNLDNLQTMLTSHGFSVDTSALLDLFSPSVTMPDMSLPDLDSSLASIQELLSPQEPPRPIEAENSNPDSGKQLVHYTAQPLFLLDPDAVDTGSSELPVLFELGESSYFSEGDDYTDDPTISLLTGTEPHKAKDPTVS

[2] = biological target: T2, Corticotropin-releasing factor receptor 2/Corticotropin-releasing factor-binding protein (Homo sapiens, UniProt P24387+Q13324); experiment: Dose Response confirmation of uHTS hits for small molecule antagonists of the CRF-binding protein and CRF-R2 receptor complex.; format: functional; settings: read-out: IC50_Mean
T2 sequence (Q13324 whole entry): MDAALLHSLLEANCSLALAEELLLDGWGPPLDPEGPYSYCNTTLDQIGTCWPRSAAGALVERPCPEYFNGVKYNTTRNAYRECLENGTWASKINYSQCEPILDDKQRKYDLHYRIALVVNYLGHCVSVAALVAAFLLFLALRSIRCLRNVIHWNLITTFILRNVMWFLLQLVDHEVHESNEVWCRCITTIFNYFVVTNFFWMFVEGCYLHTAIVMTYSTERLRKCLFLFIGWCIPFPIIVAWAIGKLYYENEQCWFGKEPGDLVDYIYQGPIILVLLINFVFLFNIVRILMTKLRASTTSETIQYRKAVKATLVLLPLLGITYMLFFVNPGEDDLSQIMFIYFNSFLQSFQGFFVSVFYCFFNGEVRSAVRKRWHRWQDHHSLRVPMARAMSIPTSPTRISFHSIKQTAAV
T2 sequence (P24387 whole entry): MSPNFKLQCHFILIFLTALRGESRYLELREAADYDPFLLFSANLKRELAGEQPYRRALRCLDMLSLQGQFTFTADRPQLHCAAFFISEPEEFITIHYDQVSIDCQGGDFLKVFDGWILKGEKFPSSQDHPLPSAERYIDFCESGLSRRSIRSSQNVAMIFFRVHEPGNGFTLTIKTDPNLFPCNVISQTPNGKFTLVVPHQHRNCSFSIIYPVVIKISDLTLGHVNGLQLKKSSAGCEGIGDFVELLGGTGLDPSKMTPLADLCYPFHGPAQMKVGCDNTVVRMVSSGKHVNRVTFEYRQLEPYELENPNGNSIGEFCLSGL

[3] = biological target: T2, Corticotropin-releasing factor receptor 2/Corticotropin-releasing factor-binding protein; experiment: activators of CRF receptor 2 with binding protein – uHTS hits, confirmation (AID 602473); format: functional; settings: read-out: EC50_Mean
[4] = tested on: Streptococcus sp. 'group A'; experiment: growth inhibition of control SK(-) GAS strain, dose response, counter-screen for streptokinase expression inhibitor project, luminescence, kanamycin, BacTiterGlo, confirmation (AID 1900); format: functional, organism-based
Streptokinase A = biological target: T3, Streptokinase A (Streptococcus pyogenes serotype M1, UniProt P10520); experiment: S. pyogenes streptokinase expression inhibitors, potency, dose response, plasminogen activation absorbance, OD405 (AID 1914); format: functional, Streptococcus pyogenes M1 GAS;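 note: secreted streptokinase activity via plasminogen activation per viability signal from cell pellet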
T3 sequence (P10520 whole entry): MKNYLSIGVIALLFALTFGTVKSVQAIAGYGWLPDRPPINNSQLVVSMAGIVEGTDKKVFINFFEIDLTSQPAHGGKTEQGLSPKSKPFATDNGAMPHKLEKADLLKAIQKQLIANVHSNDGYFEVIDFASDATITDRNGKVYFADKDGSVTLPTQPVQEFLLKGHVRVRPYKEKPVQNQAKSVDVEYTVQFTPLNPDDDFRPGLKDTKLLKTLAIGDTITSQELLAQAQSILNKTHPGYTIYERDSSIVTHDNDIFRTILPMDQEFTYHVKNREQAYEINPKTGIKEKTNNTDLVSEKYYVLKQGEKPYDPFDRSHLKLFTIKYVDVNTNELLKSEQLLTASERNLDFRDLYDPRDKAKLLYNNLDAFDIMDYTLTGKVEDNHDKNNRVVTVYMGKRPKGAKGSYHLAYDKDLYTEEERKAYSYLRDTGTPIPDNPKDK

Streptococcus = experiment: Group A Streptococcus viability loss, dose response, counter-screen for streptokinase expression inhibitor project, luminescence, BacTiterGlo (AID 1915); format: functional, organism-based;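 note: potency for reduction of bacterial viability or growth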
INS1 = experiment: beta cell apoptosis inhibitors, cytokine rescue, dose response, luminescence, retest (AID 449756); format: functional, cell-based; settings: Rattus norvegicus;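 note: cell death triggered by IL-1 beta plus TNF-alpha plus IFN-gamma mixture; protective hits raise ATP signal compared with cytokine alone wells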
[5] = Shn3 3'UTR reporter inhibitors, dose response, cell-based, Clone20 osteoblasts, firefly luciferase, cherry-picked (AID 624132); format: functional;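 note: firefly luciferase luminescence from reporter carrying the Shn3 3'UTR in osteoblasts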
[6] = HepG2 cell cytotoxicity, dose response, cytotoxicity control for Shn3 inhibitor project, CellTiter-Glo, cherry-picked (AID 624134); format: functional, cell-based
[7] = control 3'UTR Renilla luciferase suppression, dose response, counter-screen for Shn3 inhibitor project, cell-based, Clone20-Shn3RL, cherry-picked (AID 624133); format: functional
[8] = NIH-3T3 fibroblast cytotoxicity, dose response, cytotoxicity control, cell-based, fluorescence, Alamar Blue, secondary assay (AID 2327); format: functional;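 note: NIH-3T3 mouse fibroblasts cultured with fluconazole at 8 µg/mL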
[9] = C. albicans growth with fluconazole, confirmation, fluorescence, retest (AID 2467); format: functional, cell-based
Cytochrome P450 2C19 = Cytochrome P450 2C19 (Homo sapiens, UniProt P33261); experiment: Cytochrome panel assay with activity outcomes. Panel member name: p450-cyp2c19 Compounds with AC50 equal or less than 10 uM are considered active; format: functional
Cytochrome P450 2C9 = Cytochrome P450 2C9 (Homo sapiens, UniProt P11712)
[10] = biological target: T4, Polyadenylate-binding protein 1 (Homo sapiens, UniProt P11940); experiment: PABP1 MLLE–PAM2 interaction inhibitors, dose response, miRNA deadenylation inhibitor project, biochemical, fluorescence polarization, Cy5-PAM2 peptide, secondary (AID 602260); format: functional; settings: read-out: IC50_Mean
[11] = biological target: T4, Polyadenylate-binding protein 1; experiment: PABP1 MLLE–PAM2 binding inhibitor potency, dose response, biochemical, fluorescence polarization, FITC-PAM2 peptide (AID 602259); format: functional; settings: read-out: IC50_Mean

T4 sequence (P11940 whole entry): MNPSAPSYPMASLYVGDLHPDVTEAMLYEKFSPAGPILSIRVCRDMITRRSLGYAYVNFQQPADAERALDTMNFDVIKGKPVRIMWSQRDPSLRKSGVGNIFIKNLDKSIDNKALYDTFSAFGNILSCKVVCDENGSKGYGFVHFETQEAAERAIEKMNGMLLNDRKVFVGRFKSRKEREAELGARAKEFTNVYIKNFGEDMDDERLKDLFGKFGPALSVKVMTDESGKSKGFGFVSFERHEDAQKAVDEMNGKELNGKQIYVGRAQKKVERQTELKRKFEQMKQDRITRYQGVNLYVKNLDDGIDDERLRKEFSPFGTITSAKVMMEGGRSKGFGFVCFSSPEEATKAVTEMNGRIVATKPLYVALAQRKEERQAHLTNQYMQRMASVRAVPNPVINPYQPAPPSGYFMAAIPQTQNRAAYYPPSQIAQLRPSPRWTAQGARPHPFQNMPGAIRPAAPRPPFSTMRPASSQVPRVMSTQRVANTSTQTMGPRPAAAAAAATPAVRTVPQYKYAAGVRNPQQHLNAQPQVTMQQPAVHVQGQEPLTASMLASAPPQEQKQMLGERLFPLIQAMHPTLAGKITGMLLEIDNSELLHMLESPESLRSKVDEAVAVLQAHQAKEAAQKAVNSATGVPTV
Cytochrome P450 2C9, sequence (P11712 whole entry): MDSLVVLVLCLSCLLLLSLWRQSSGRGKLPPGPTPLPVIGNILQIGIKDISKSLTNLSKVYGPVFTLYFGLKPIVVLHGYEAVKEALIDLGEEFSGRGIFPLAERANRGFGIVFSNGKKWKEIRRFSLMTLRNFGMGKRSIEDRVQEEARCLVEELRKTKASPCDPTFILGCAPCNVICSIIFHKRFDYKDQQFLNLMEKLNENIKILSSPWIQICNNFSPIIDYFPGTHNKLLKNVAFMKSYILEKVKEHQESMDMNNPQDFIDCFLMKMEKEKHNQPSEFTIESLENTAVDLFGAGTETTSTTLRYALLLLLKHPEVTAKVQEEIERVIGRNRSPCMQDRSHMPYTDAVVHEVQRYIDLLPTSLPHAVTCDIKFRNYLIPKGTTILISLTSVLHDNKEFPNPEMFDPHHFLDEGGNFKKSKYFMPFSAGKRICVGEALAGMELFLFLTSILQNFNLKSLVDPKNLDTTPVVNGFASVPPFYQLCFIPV
Cytochrome P450 2C19, sequence (P33261 whole entry): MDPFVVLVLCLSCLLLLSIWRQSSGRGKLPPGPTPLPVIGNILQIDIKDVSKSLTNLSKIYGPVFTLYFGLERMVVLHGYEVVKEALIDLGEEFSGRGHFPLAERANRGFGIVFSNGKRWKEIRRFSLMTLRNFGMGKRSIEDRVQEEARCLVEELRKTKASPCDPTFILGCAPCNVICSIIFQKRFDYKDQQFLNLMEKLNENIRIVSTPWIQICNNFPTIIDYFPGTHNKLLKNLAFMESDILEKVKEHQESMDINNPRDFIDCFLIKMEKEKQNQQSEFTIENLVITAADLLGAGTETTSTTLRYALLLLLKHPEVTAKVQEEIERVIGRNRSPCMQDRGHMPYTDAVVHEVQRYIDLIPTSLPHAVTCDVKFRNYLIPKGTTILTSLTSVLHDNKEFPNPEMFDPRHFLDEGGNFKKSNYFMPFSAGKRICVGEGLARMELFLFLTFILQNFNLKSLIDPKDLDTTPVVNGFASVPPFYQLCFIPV

SMILES: Cn1cc([N+](=O)[O-])c(C(=O)Nc2ccc(-c3nc4ccccc4[nH]3)cc2)n1
- EC50 [1]: 32 µM (active)

SMILES: COC(=O)c1ccc(CSc2nc3ccccc3c(=O)n2-c2cccc(OC)c2)o1
- IC50 [2]: 4.06 µM (active)
- EC50 [3]: > 53 µM (inactive)

SMILES: CCOC(=O)c1ccc(NC(=O)c2sc3nc4n(c(=O)c3c2C)CCC4)cc1
- EC50 [4]: 1.48 µM (active)
- EC50 (Streptokinase A): > 150 µM (not active)
- EC50 (Streptococcus): 20.2 µM (active)

SMILES: Cc1ccc2nc(N3C(=O)C(O)=C(C(=O)c4ccco4)C3c3cccc(O)c3)sc2c1 (stereo unspecified)
- IC50 [2]: < 0.368 µM (active)
- EC50 [3]: > 53 µM (inactive)

SMILES: Cc1ccc2[nH]c(SCC(=O)NCc3ccc(F)cc3)nc2c1
- EC50 [1]: > 260 µM (inactive)

SMILES: CCN(CC)S(=O)(=O)c1cccc(C(=O)Nc2ccc3c(c2)OCO3)c1
- IC50 [2]: > 47.1 µM (inactive)
- EC50 [3]: > 53 µM (inactive)

SMILES: Cc1ccc(S(=O)(=O)N2CCN(c3ncnc4sccc34)CC2)cc1
- AC50 (INS1): 5.64 µM (active)
- AC50 [5]: 2.72 µM (active)
- AC50 [6]: 6.76 µM (active)
- AC50 [7]: 5.22 µM (active)

SMILES: CC12CCC(C(=O)Nc3ncc([N+](=O)[O-])s3)(OC1=O)C2(C)C (stereo unspecified)
- EC50 [8]: > 160 µM (inactive)
- EC50 [9]: 0.629 µM (active)
- AC50 (Cytochrome P450 2C19): inconclusive
- IC50 [2]: > 47.1 µM (inactive)
- EC50 [3]: > 53 µM (inactive)
- AC50 (Cytochrome P450 2C9): 11.2 µM (inconclusive)

SMILES: CCOC(=O)c1cc(C#N)c(N2CCN(c3ccc(OC)cc3)CC2)nc1O
- EC50 [8]: > 150 µM (inconclusive)
- EC50 [9]: 0.046 µM (active)

SMILES: O=C(NCCNC(=O)C(c1ccccc1)c1ccccc1)c1ccco1
- EC50 [8]: > 150 µM (inactive)
- EC50 [9]: > 38 µM (not active)

SMILES: COc1ccc(-c2cn3cc(C)ccc3n2)cc1OC
- EC50 [1]: > 260 µM (inactive)

SMILES: Cc1cc(F)ccc1NCc1cc2c(cc1[N+](=O)[O-])OCO2
- EC50 [1]: > 260 µM (inactive)

SMILES: CC1(C)CC(=O)C2=C(C1)N(Cc1ccco1)C(=O)C2(O)C(F)(F)F (stereo unspecified)
- IC50 [2]: > 47.1 µM (inactive)
- EC50 [3]: > 53 µM (inactive)

SMILES: COc1ccc(CCNC(=O)COc2ccc(N(C)S(=O)(=O)c3ccc(C)cc3)cc2)cc1OC
- IC50 [2]: > 47.1 µM (inactive)
- EC50 [3]: > 53 µM (inactive)

SMILES: O=[N+]([O-])c1cc2c(c(CSc3nnc(Nc4ccccc4)s3)c1)OCOC2
- AC50 [5]: 3.62 µM (active)
- AC50 [6]: 55.6 µM (active)
- AC50 [7]: 9.43 µM (active)

SMILES: O=C(NC(=S)Nc1cccnc1)c1cccs1
- IC50 [10]: > 66 µM (inactive)
- IC50 [11]: > 66 µM (inactive)
